Here are results for 10 molecules from patent publication US3931407A, “Method of treatment with and compositions containing condensed pyrroles bearing an N-phenyl substituent” (American Hoechst Corporation, priority 1974, dated 1976).

Data set [1] concerns edema induced by carrageenin in rat paws. The data set can be described thus: Carrageenin paw edema in rats. It counts as in vivo. Particulars: read-out: Carrageenin paw edema-rats ED50. (In general: The carrageenan paw model is a standard test of acute inflammation.)
Data set [2] has as its system writhing induced in mice by 2-phenyl-1,4-benzoquinone. The data set can be described thus: Phenylquinone (2-phenyl-1,4-benzoquinone) writhing in mice, analgesic activity. It counts as in vivo. As to conditions: Mus musculus, read-out: Phenylquinone writhing-mice ED50. An excerpt:
Exp. Biol. Med., 95, 729 (1957)]. The activity of several representative compounds of the present invention and of aspirin and phenylbutazone is expressed as ED50, the dose (mg/kg) of compound producing a 50% reduction in the number of writhes as compared to non-treated 2-phenyl-1,4-benzoquinone dosed controls.
(Writhing tests count abdominal constrictions after an irritant is injected.)

For data set [3], the system named is yeast-induced pyrexia in rats. The data set can be described thus: Antipyretic assay, yeast-induced pyrexia in rats. The class given is in vivo, female Charles River or Wistar rats. As to conditions: Rattus norvegicus; dose producing ≥ 1° reduction in rectal temperature in 50 percent of fevered rats; oral; 2 hours past drug. Here is the method: A common property of useful anti-inflammatory agents is their ability to lower elevated body temperatures. […] Groups of ten female Charles River or Wistar rats (120-150 gm) are injected with a 20% water suspension of "Brewers Yeast" subcutaneously into the nape of the neck (10 ml/kg). The animals are starved (water ad lib.) and 18 hours later rectal temperatures are monitored (Tele-Thermometer, Yellow Springs Instrument Co., Inc., Yellow Springs, Ohio). Animals with a temperature ≥ 37.2°C. are considered fevered. Drugs are administered orally (10 ml/kg) using distilled water and, if insoluble, one drop of a dispersing agent, e.g. "Tween 80," per 10 ml. Temperatures are recorded 2 hours past drug. Significant activity is a reduction in rectal temperature ≥ 1° from the mean control temperature. The activity of the compounds tested is expressed as ED50, the dose (mg/kg) of a compound producing a reduction of ≥ 1° in rectal temperature of fevered rats from the mean fevered control temperature in 50 percent of the animals.

The nature of the next data set: in vivo. Particulars: rat, po. Here is the method:
A common but undesirable side effect of anti-inflammatory agents is the production of gastric irritation in mammals. […] Groups of male or female rats (Wistar, Long Evans or Charles River), 150-180 gm, are utilized for this assay using 10 animals per dose group. The animals are starved for 48 hours (H2 O ad lib) prior to administration of drug orally at 10 ml/kg. Drugs are prepared using distilled water solutions or, if insoluble, 1 drop of a dispersing agent, e.g. "Tween 80"/10 ml, is used with homogenization. The control group receives the vehicle only (10 ml/kg). […] Stomachs are removed and examined for gastric irritation, which is defined as ulceration and/or hemorrhage of gastric mucosa. The presence of a single ulcer or hemorrhage spot is taken as positive and stomachs must be "clean" to be negative. A dose response is run at the peak time using at least four dose levels of test drug. In the table, gastric irritability is expressed as ID50, the dose (mg/kg) of compound producing irritation in 50 percent of the animals after seven hours.

Data set [4] relates to adjuvant-induced arthritis in rats. Nature of the data set: Adjuvant-induced arthritis in rats. It counts as in vivo. Particulars: Rattus norvegicus, 504 h; for inhibition in vivo at 100 mg/kg: 100 mg/kg/day; for inhibition in vivo at 100 mg/kg / inhibition in vivo at 50 mg/kg / inhibition in vivo at 10 mg/kg / inhibition in vivo at 25 mg/kg: rats, day 21; for inhibition in vivo at 50 mg/kg: 50 mg/kg/day; for inhibition in vivo at 10 mg/kg: 10 mg/kg/day; for inhibition in vivo at 25 mg/kg: 25 mg/kg/day.

[5] abbreviates: dose producing 50% reduction in edema vs non-treated controls, rats.
[6] abbreviates: dose producing 50% reduction in number of writhes vs non-treated controls, mice.
Setting [7] is: read-out: % Inhibition of Edema on Day 21, Adjuvant Injected Paw.
Setting [8] is: read-out: % Inhibition of Edema on Day 21, Non-Injected Paw.

SMILES strings stand for the structures. Where two headings read alike, the source gives them in different places.

What is called ED50 is the midpoint of the dose-response relation. Consider `O=C(O)c1cc(-n2c(-c3ccccc3)cc3c2CCCCC3)ccc1O` [1-(3-Carboxy-4-hydroxyphenyl)-1,4,5,6,7,8-hexahydro-2-phenylcyclohepta[b]pyrrole], for which the 50% effective dose (ED50) amounted to 125 mg/kg in data set [1] (setting [5]), 10 mg/kg in data set [2] (setting [6]) and 100 mg/kg in data set [3]. For the same molecule, in the data set “in vivo”, the TD50 at 7 h was greater than 200 mg/kg. Also, the inhibition in vivo at 100 mg/kg in data set [4] (setting [7]) came to 75%; in data set [4] (setting [8]), 90%.
`O=C(O)c1cc(-n2c(-c3ccc(F)cc3)cc3c2CCCC3)ccc1O` [1-(3-Carboxy-4-hydroxyphenyl)-2-(4-fluorophenyl)-4,5,6,7-tetrahydroindole]: the ED50 in data set [1] (setting [5]) amounted to 88 mg/kg. Further, the inhibition in vivo at 100 mg/kg in data set [4] (setting [7]) worked out at 56%; in data set [4] (setting [8]), 64%.
Turning to `O=C(O)c1cc(-n2c(-c3ccccc3)cc3c2CCC3)ccc1O` [1-(3-Carboxy-4-hydroxyphenyl)-2-phenyl-1,4,5,6-tetrahydrocyclopenta[b]pyrrole], the results for the median effective dose (ED50) in data set [1] (setting [5]), in data set [2] (setting [6]) and in data set [3] were 110 mg/kg, 10 mg/kg and less than 50 mg/kg, respectively. Besides, the TD50 at 7 h in “in vivo” turned out to be 125 mg/kg. The inhibition in vivo at 100 mg/kg is 57% in data set [4] (setting [7]) and 75% in data set [4] (setting [8]).
In the case of `O=C(O)c1cc(-n2c(-c3ccccc3)cc3c2CCCC3)ccc1O` [1-(3-Carboxy-4-hydroxyphenyl)-2-phenyl-4,5,6,7-tetrahydroindole], the values for the median effective dose (ED50) in data set [1] (setting [5]), in data set [2] (setting [6]) and in data set [3] were 87 mg/kg, 17 mg/kg and 41 mg/kg, respectively. Also, in “in vivo”, the TD50 at 7 h is 130 mg/kg. The values for the inhibition in vivo at 50 mg/kg in data set [4] (setting [7]) and in data set [4] (setting [8]) were 38% and 72%, respectively. In addition, the inhibition in vivo at 100 mg/kg is 65% in data set [4] (setting [7]) and 80% in data set [4] (setting [8]).
Turning to `O=C(O)c1cc(-n2c(-c3ccccc3)cc3c2CCCC3)ccc1S` [1-(3-Carboxy-4-mercaptophenyl)-2-phenyl-4,5,6,7-tetrahydroindole], in data set [1] (setting [5]), the median effective dose (ED50) came out at 140 mg/kg. Besides, in data set [4] (setting [7]), the inhibition in vivo at 10 mg/kg came out at 23%, the inhibition in vivo at 25 mg/kg was 43% and the inhibition in vivo at 50 mg/kg turned out to be 67%. Besides, in data set [4] (setting [8]), the inhibition in vivo at 10 mg/kg turned out to be 23%, the inhibition in vivo at 25 mg/kg worked out at 57% and the inhibition in vivo at 50 mg/kg stood at 80%.
For the molecule `O=C(O)c1cc(-n2c(-c3ccccc3)cc3c4ccccc4ccc32)ccc1O` [3-(3-Carboxy-4-hydroxyphenyl)-2-phenylbenz[e]indole], the values for the ED50 in data set [1] (setting [5]), in data set [2] (setting [6]) and in data set [3] were 90 mg/kg, 16.5 mg/kg and greater than 100 mg/kg, respectively. The molecule also had a TD50 at 7 h in the data set “in vivo” greater than 200 mg/kg. Besides, the inhibition in vivo at 25 mg/kg in data set [4] (setting [7]) came out at 45%; in data set [4] (setting [8]), 50%. Besides, the inhibition in vivo at 50 mg/kg in data set [4] (setting [7]) and in data set [4] (setting [8]) was 70% throughout.
`O=C(O)c1cc(-n2c(-c3ccccc3)cc3c2CCc2ccccc2-3)ccc1O` [3-(3-Carboxy-4-hydroxyphenyl)-4,5-dihydro-2-phenylbenz[e]indole]: the ED50 in data set [1] (setting [5]) amounted to 63 mg/kg; in data set [2] (setting [6]), 10 mg/kg; in data set [3] it was 69 mg/kg. Also, the TD50 at 7 h in the data set “in vivo” fell in the range of 300 to 350 mg/kg. The inhibition in vivo at 10 mg/kg in data set [4] (setting [7]) was 27%; in data set [4] (setting [8]), 29%. The inhibition in vivo at 25 mg/kg in data set [4] (setting [7]) was determined as 49%; in data set [4] (setting [8]) it was 72%. Also, the inhibition in vivo at 50 mg/kg worked out at 69% in data set [4] (setting [7]) and 81% in data set [4] (setting [8]).
With `CC(=O)Oc1ccc(-n2c(-c3ccccc3)cc3c2CCc2ccccc2-3)cc1C(=O)O` [3-(4-Acetoxy-3-carboxyphenyl)-4,5-dihydro-2-phenylbenz[e]indole], the figures for the median effective dose (ED50) in data set [1] (setting [5]) and in data set [2] (setting [6]) were 70 mg/kg and 16.5 mg/kg, respectively. The TD50 at 7 h in the data set “in vivo” is greater than 300 mg/kg. The inhibition in vivo at 50 mg/kg in data set [4] (setting [7]) turned out to be 56%; in data set [4] (setting [8]), 68%. The values for the inhibition in vivo at 100 mg/kg in data set [4] (setting [7]) and in data set [4] (setting [8]) were 82% and 93%, respectively.
In the case of `CC(=O)Oc1ccccc1C(=O)O` [Aspirin, reference compound], the 50% effective dose (ED50) is 130 to 140 mg/kg in data set [1], 53 mg/kg in data set [2] and 35 mg/kg in data set [3]. This molecule also came in with a TD50 at 7 h in the data set “in vivo” (in vivo) of 42 mg/kg. Moreover, the inhibition in vivo at 200 mg/kg in data set [4] (setting [7]) came to 37%; in data set [4] (setting [8]), 47%.
Turning to `CCCCC1C(=O)N(c2ccccc2)N(c2ccccc2)C1=O` [Phenylbutazone, reference compound], the ED50 in data set [1] (setting [5]) is 83 mg/kg; in data set [2] (setting [6]), 89 mg/kg; in data set [3], less than 50 mg/kg. The TD50 at 7 h in “in vivo” is 75 mg/kg. Besides, the inhibition in vivo at 50 mg/kg amounted to 60% in data set [4] (setting [7]) and 71% in data set [4] (setting [8]).
